These results are taken from US7560227B2, “Biomarkers of vulnerable atherosclerotic plaques and methods of use” (University of Massachusetts, priority 2005, dated 2009).

Where a SMILES comes first, the peptide text is derived from it. Bridges are numbered along the chain shown (N, C = ends). Where no end group is shown, it is not given here.

In test [1] the target is T1, myeloperoxidase (Homo sapiens, UniProt P05164).
T1 construct: Slides of bone marrow tissue were used since they are known to contain myeloperoxidase; from tissue; host or cells: bone marrow tissue slides
T1 sequence (P05164 49-745): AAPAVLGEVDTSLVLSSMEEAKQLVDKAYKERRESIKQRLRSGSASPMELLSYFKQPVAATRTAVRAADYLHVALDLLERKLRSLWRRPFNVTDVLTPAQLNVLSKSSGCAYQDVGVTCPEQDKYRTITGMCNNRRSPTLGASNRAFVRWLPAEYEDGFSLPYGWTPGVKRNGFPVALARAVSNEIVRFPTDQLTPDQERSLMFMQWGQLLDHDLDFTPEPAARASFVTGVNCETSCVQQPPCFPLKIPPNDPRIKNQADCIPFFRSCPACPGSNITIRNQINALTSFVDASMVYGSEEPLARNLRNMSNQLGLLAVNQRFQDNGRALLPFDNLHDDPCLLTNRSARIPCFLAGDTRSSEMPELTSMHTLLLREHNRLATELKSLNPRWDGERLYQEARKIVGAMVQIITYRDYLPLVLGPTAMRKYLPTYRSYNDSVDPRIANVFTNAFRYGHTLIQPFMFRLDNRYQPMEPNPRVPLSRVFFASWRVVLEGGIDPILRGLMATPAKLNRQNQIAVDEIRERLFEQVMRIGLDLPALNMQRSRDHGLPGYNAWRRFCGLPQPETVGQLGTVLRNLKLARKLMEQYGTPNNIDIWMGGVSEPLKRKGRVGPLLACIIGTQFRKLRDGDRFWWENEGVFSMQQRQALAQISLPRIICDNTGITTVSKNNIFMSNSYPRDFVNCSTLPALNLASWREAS
As to the kind of experiment: Histological staining of bone marrow tissue slides with biotinylated peptides. The settings on record: biotinylated peptide, anti-biotin antibody, ABC alkaline phosphatase kit, hematoxylin counterstain. On the procedure: FIGS. 9A-9D show the results of histological studies. Slides of bone marrow tissue were used since they are known to contain myeloperoxidase. Treatments were as follows: Figure 9A, anti-myeloperoxidase antibody followed with biotinylated secondary antibody; FIG. 9B, biotinylated twenty-three mer MPO-17 peptide; FIG. 9C, biotinylated twenty-three mer control peptide; FIG. 9D, incubated with both the biotinylated twenty-three mer MPO-17 peptide and the biotinylated twenty-three mer control peptide, without primary antibody. Each slide was treated with an anti-biotin antibody and the ABC alkaline phosphatase kit (Vector labs) and counterstained with hematoxylin.
The binding of identified peptides to components of plaques was confirmed histologically as follows. Peptide sequences found in multiple selected clones were used to produce peptides using synthetic techniques. Peptides may also be produced using recombinant DNA techniques. The peptides are conjugated with a detectable label, such as biotin using known protocols. The biotin-labeled peptides are used to confirm the binding specificity determined in Example 1 and Example 2 by immunohistochemical analyses of tissue such as vulnerable plaques or tissues rich in components vulnerable plaques that have been exposed to biotin-labeled peptides.
FIGS. 9A-9D show the results of such histological studies. […]

Test [2] addresses T2, myeloperoxidase (Homo sapiens, UniProt P05164). As to the kind of experiment: SE-HPLC (Superose-12) evaluation of twenty-three mer peptide binding to myeloperoxidase. The conditions noted are these: for Shift to a retention time associated with myeloperoxidase: SE-HPLC, Superose-12 column, over incubation time. On the procedure: FIGS. 7A and 7B are graphical representations of the results an evaluation of twenty- three mer peptide binding by SE-HPLC using a Superose-12 column. […] For example, the UV peak for the enzyme increased from 16% of total protein at […] of incubation to 46% of total protein after 2 h incubation.
FIGS. 7A and 7B are graphical representations of the results of an evaluation of MPO-17 twenty-three mer polypeptide binding by SE-HPLC using a Superose-12 column. […] For example, the UV peak for the enzyme increased from 16% of total protein at 5 min of incubation to 46% of total protein after 2 hours incubation.

Test [3] addresses T2, myeloperoxidase. The test can be described thus: Binding of 99mTc-labeled phage clones to 125I-myeloperoxidase, separated on spin column / Sepharose 6B column. The settings on record: for Relative Binding (% bound): 99mTc-phage (10^10 pfu) with 125I-myeloperoxidase (750 ng), 15-30 minutes at 4 degrees Celsius, after subtraction of binding by control phage MPO-4; for Binding to 125I-myeloperoxidase compared with control clone MPO-4 (in words): shift of 125I to higher molecular weight fractions associated with 99mTc-phage. On the procedure: FIG. 6 is a graphical representation of the results of studies of the binding of several phage clones to ^125-myeloperoxidase where the relative magnitude of binding was MPO-17>MPO-6>MPO-15 >MPO-1 >control (MPO-4). The consensus phage clones were radiolabeled with ^99mTc, using mercaptoacetyltriglycine (MAG3) as chelator, and the myeloperoxidase was iodinated using iodogen. The ^99mTc-phage were incubated with the ^125I-myeloperoxidase for 15-30 minutes, and then separated on a Sepharose 6B column. The shift of ^125I to the higher molecular weight fractions associated with ^99mTc-phage indicated binding.
After three rounds of selection, twenty phage clones were sequenced and four peptides occurring in more than one clone were identified. The phage clones representing the four sequences occurring in more than one clone plus a clone having a sequence that occurred in no other selected clone were amplified, titered and conjugated with NHS-MAG3 for radiolabeling with ^99mTc. See Winnard, P. Jr, et al., Preparation and use of NHS-MAG3 for technetium-99m labeling of DNA, Nucl. Med. Biol. 1997 July; 24(5):425-32. Myeloperoxidase was radiolabeled with ^125I via iodogen and a fixed amount (750 ng) was incubated with a constant number of phage plaque forming units (10^10) of each of the four consensus clones, plus a non-consensus clone as control, each radiolabeled with ^99mTc. Myeloperoxidase was added at what was estimated to be a 10-fold molar excess over peptide. After incubating for 15-30 minutes at 4 degrees Celsius, the binding of myeloperoxidase to each phage clone was determined by separating phage from myeloperoxidase using both a MicroSpin S-200 HR spin column and a Sepharose 6B open mini-column. The ^99mTc counts were used to identify the phage-containing fractions while the 125I counts in those fractions identified the concentration of bound myeloperoxidase. The peptide sequences of the 16 mer cysteine-constrained peptides in the display domain of the PVIII coat protein and the relative binding of four clones (MPO-1, MPO-6, MPO-15 and MPO-17) are listed in Table 2, below.
FIG. 8 is a graphical representation of the results of studies of the binding of several bacteriophage clones to ^125I-myeloperoxidase where the relative magnitude of binding was MPO-17>MPO-6>MPO-15>MPO-1>control (MPO-4). The consensus phage clones were radiolabeled with ^99mTc, using MAG3 as chelator, and the myeloperoxidase was iodinated using iodogen. The ^99mTc-phage were incubated with the ^125I-myeloperoxidase for 15-30 minutes, and then separated on a Sepharose 6B column. The shift of ^125I to the higher molecular weight fractions associated with ^99mTc-phage indicated binding.

For test [4], the system named is LS-174T colon cancer cells. As to the kind of experiment: Binding of 99mTc-labeled phage to LS-174T colon cancer cells in vitro. It counts as cell-based. The settings on record: for Relative Binding: Table 6, relative to control phage A3-12; for Binding compared to the control phage (A3-12): 6×10^5 cells per 50 μl, ~1.5×10^11 virions 99mTc-labeled phage. On the procedure:
For in vitro studies, LS-174T colon cancer cells, known to express the TAG-72 protein were incubated at a fixed ratio of cells (6×10^5 per 50 μl) to ^99mTc-labeled phage, ˜1.5×10^11 virions.

In a further test the test system is LS-174T tumor cubes. The test can be described thus: Binding of 99mTc-labeled phage to LS-174T solid tumor cubes. The conditions noted are these: ~1 mm tumor cubes incubated with serial dilutions of 99mTc-labeled phage. On the procedure: Since TAG-72 expression is known to be higher in solid tumors than cells from culture, LS-174T cells were grown in nude mice, the resulting tumors removed and cut into ˜1 mm cubes for an assay using solid tumors. In addition to the labeled phage, the ^99mTc-labeled antibody was used to evaluate the level of antigen expression in tumor. For assay the tumor cubes were incubated with serial dilutions of ^99mTc-labeled phage or the ^99mTc-B72.3 antibody.

In another test the test system is TAG-72. As to the kind of experiment: Competition of unlabeled phage with 99mTc-labeled B72.3 antibody on LS-174T tumor cubes. It counts as binding. The conditions noted are these: 1 ng 99mTc-labeled B72.3 antibody, serial dilutions of unlabeled phage. On the procedure: To test if phage A3-10 could compete with the B72.3, the LS-174T tumor cubes were incubated with 1 ng of ^99mTc-labeled B72.3 antibody and serial dilutions of unlabeled A3-10 phage. […] Thus, the phage is likely blocking the antibody, an indication of binding to the same target.

For the molecule `CC(C)C[C@H](NC(=O)[C@@H]1CSSC[C@H](NC(=O)[C@H](CCC(N)=O)NC(=O)CNC(=O)[C@H](CO)NC(=O)[C@@H](N)CCCNC(=N)N)C(=O)N[C@@H](Cc2c[nH]cn2)C(=O)N[C@@H](CC(=O)O)C(=O)N[C@@H](CC(=O)O)C(=O)N[C@@H]([C@@H](C)O)C(=O)N[C@@H](Cc2c[nH]c3ccccc23)C(=O)N[C@@H](CC(N)=O)C(=O)N1)C(=O)N[C@@H](C)C(=O)N[C@@H](CS)C(=O)N[C@H](C(=O)NCC(=O)NCC(=O)N[C@@H](CO)C(=O)NCC(=O)NCC(=O)NCC(=O)N[C@@H](CS)C(=O)O)C(C)C` [MPO-17 twenty-three mer peptide] (H-RSGQCHDDTWNCLACVGGSGGGC-OH; disulfide 5-12 (inferred); N-terminus and C-terminus assumed), the Staining pattern result at myeloperoxidase [1] is recorded as “staining pattern similar to that seen with the anti-myeloperoxidase antibody”. Also, the “Shift to a retention time associated with myeloperoxidase” value on myeloperoxidase [2] is “gradual shift”. The figures for the “UV peak for the enzyme” value on myeloperoxidase [2] (after 2 hours incubation of peptide with myeloperoxidase) and at myeloperoxidase [2] (at 5 min of incubation of peptide with myeloperoxidase) were 46 % of total protein and 16 % of total protein, respectively.

As for AMPVCSLDRKACTAYQ [MPO-1], on myeloperoxidase [3], the “Relative Binding (% bound)” value was found to be 3.9% and the “Binding to 125I-myeloperoxidase compared with control clone MPO-4 (in words)” value was “binding above the binding of the control clone MPO-4”.

Regarding “HVLGCSYATNSCAHNA (displayed on f88-4 phage pVIII; Chemically synthesized, clone MPO-5) [MPO-6, f88-4/Cys6 phage clone displaying this 16 mer cysteine-constrained peptide in the pVIII coat protein]”, in the test with myeloperoxidase [3], the “Relative Binding (% bound)” value is on record as 5.8% and the “Binding to 125I-myeloperoxidase compared with control clone MPO-4 (in words)” value is “binding above the binding of the control clone MPO-4”.

LKNYCRKCSNRCTPTG [A3-21]: in test [4], the “Relative Binding” value was found to be 1.

As for MNYYCHQTTKTCRTHS [A3-12], the “Phage bound with phage added” value with LS-174T tumor cubes was “no change in phage bound except at the highest concentration”. In addition, the “Relative Binding” value in test [4] is listed as 1.

Regarding NLIWCRKEFARCTSDM [A3-19], in test [4], the “Binding compared to the control phage (A3-12)” value was “about 1.5 fold” and the “Relative Binding” value is recorded as 1.5.

As for NPGTCKDKWIECLLNG [A3-10], the “Phage bound with phage added” value in the test with LS-174T tumor cubes is recorded as “linear increase in phage bound with phage added”. Further, the “Activity associated with the binding of 99mTc-B72.3 antibody” value with TAG-72 is “decreased with an increase in unlabeled phage added”. In addition, in test [4], the “Binding compared to the control phage (A3-12)” value is 4,3 fold and the “Relative Binding” value came to 4.3.

As to “QMKQCWVNTATCWGLSGGSGGGC (cysteine pairing not given here; also: biotinylated) [biotinylated for histology]”, the Staining pattern entry with myeloperoxidase [1] (listed as control peptide) is “Only the bkie hematoxylin stain is observed”. Moreover, in the test with myeloperoxidase [2], the “Shift to a retention time associated with myeloperoxidase” value is “no shift”.

In the case of “RSGQCHDDTWNCLACV (displayed on f88-4 phage pVIII; Chemically synthesized, clone MPO-17) [f88-4/Cys6 phage clone displaying this 16 mer cysteine-constrained peptide in the pVIII coat protein]”, in the test with myeloperoxidase [3], the “Relative Binding (% bound)” value came out at 8% and the “Binding to 125I-myeloperoxidase compared with control clone MPO-4 (in words)” value is given as “highest binding”.

Take “TVMLCNPMEQGCRWMC (displayed on f88-4 phage pVIII; Chemically synthesized, clone MPO-15) [f88-4/Cys6 phage clone displaying this 16 mer cysteine-constrained peptide in the pVIII coat protein]”: in the test with myeloperoxidase [3], the “Relative Binding (% bound)” value is reported as 4.5% and the “Binding to 125I-myeloperoxidase compared with control clone MPO-4 (in words)” value is listed as “binding above the binding of the control clone MPO-4”. In addition, the “Relative Binding (% bound)” value in the test with myeloperoxidase [3] (listed as MPO-5) turned out to be 4.5%.
